Values quoted from earlier work as cited in patent US20210181182A1, “METHOD FOR IDENTIFICATION OF PERTURBAGENS OF PARTICULAR BIOLOGICAL PROCESSES AND CELL SYSTEMS WITHIN LIVING CELLS” (priority 2018, published 2021).
Marks after values point to notes of the source that are not given here.

System: mitochondria membrane potential
Details: HepG2, 1-hour incubation at concentrations below 60 μM; cited from earlier work

Compound | MMP assay hitCall
CC=CC=CCOC(=O)C(C)C [2,4-Hexadienyl isobutyrate] | 0
C=CCC1=C(C)C(OC(=O)C2C(C=C(C)C)C2(C)C)CC1=O (centres unmarked) [Allethrin] | 1
CC(C)C1CCC(Cc2ccc(Cl)cc2)C1(O)Cn1cncn1 (centres unmarked) [Ipconazole] | 1
CC(C)(C)CC(C)(C)c1ccc(O)c(-n2nc3ccccc3n2)c1 [Octrizole] | 1
CC(C)=CC1C(C(=O)OCc2coc(Cc3ccccc3)c2)C1(C)C (centres unmarked) [Resmethrin] | 1
CCOP(=S)(OCC)Oc1ccc([N+](=O)[O-])cc1 [Parathion] | 1
COc1ccc(C(=CC(=O)N2CCOCC2)c2ccc(Cl)cc2)cc1OC [Dimethomorph] | 0
Cc1ccccc1C(=O)Nc1cccc(OC(C)C)c1 [Mepronil] | 1
CC1=C(C(=O)Nc2ccccc2)S(=O)(=O)CCO1 [Oxycarboxin] | 0
CC(C)(C)C(=O)CCl [1-Chloro-3,3-dimethyl-butan-2-one] | 0
CCOP(=S)(OCC)OC(Cl)C(Cl)(Cl)Cl (centres unmarked) [Chlorethoxyfos] | 1
Oc1c(Br)cc(Br)cc1Br [2,4,6-Tribromophenol] | 1
CCCSP(=O)(OCC)Oc1ccc(Br)cc1Cl (centres unmarked) [Profenofos] | 1
CC1(C)NC(=O)N(c2ccc([N+](=O)[O-])c(C(F)(F)F)c2)C1=O [Nilutamide, reference compound] | 0*
CC(=O)/C=C/c1ccccc1 [Methyl trans-styryl ketone] | 0
C#CC(C)(C)NC(=O)c1cc(Cl)cc(Cl)c1 [Propyzamide] | 0
CC(=O)O[C@]1(C(C)=O)CC[C@H]2[C@@H]3C=C(Cl)C4=CC(=O)[C@@H]5C[C@@H]5[C@]4(C)[C@H]3CC[C@@]21C [Cyproterone acetate, reference compound] | 1
CNc1cnn(-c2cccc(C(F)(F)F)c2)c(=O)c1Cl [Norflurazon] | 0

Compound | MMP assay hitCall
CCOP(=S)(OCC)SCSCC [Phorate] | 0*
C=CCc1ccc(OC(=O)Cc2ccccc2)c(OC)c1 [Eugenyl phenylacetate] | 0
CC(C)N(C(=O)COc1nnc(C(F)(F)F)s1)c1ccc(F)cc1 [Flufenacet] | 0
CCOCn1c(-c2ccc(Cl)cc2)c(C#N)c(Br)c1C(F)(F)F [Chlorfenapyr] | 1
Oc1ccc2c(c1)-c1ccccc1C2 [3-Hydroxyfluorene] | 1
CCCCN(CC)c1c([N+](=O)[O-])cc(C(F)(F)F)cc1[N+](=O)[O-] [Benfluralin] | 0
O=C(Nc1cccc(C(F)(F)F)c1)c1cc(Br)cc(Br)c1O [Fluorosalan] | 1
CCC(C)Nc1c([N+](=O)[O-])cc(C(C)(C)C)cc1[N+](=O)[O-] (centres unmarked) [Butralin] | 0
CC(C)(O)C(=O)Nc1ccc([N+](=O)[O-])c(C(F)(F)F)c1 [Hydroxyflutamide] | 1
CC1(C)CCC(Cc2ccc(Cl)cc2)C1(O)Cn1cncn1 (centres unmarked) [Metconazole] | 1
CC(C)CC(C)(c1ccc(O)cc1)c1ccc(O)cc1 [4,4′-(4-Methylpentane-2,2-diyl)diphenol] | 1
CCCCCC#CC(=O)OC [Methyl 2-octynoate] | 0
CCOC1Oc2ccc(OS(C)(=O)=O)cc2C1(C)C (centres unmarked) [Ethofumesate] | 0
O=C(CCl)Nc1ccccc1 [2-Chloro-N-phenylacetamide] | 0
CCc1cccc(C)c1N(C(=O)CCl)C(C)COC (centres unmarked) [Metolachlor] | 0
Cl.ClCc1cccnc1 [3-(Chloromethyl)pyridine hydrochloride] | 0
CC[C@H](C)C(=O)O[C@H]1C[C@@H](C)C=C2C=C[C@H](C)[C@H](CC[C@@H]3C[C@@H](O)CC(=O)O3)[C@H]21 [Lovastatin, reference compound] | 1
